# Values quoted from earlier work in patent publication US20240358747A1, “SOME GEL FORMULATIONS THAT PROVIDE WOUND HEALING AND THE SYNTHESIS OF DYSPROSIUM ERBIUM BORATE TRIHYDRATE (Dy0.5Er0.5BO3.3H2O) COMPOUND USED IN THESE FORMULATIONS” (VERTRATECH KIMYA SANAYI VE TICARET LIMITED SIRKETI, priority 2021, published 2024).
# Conditions: topical application of 3% boric acid to wounds
compound,measurement,value
OB(O)O [boric acid],length of stay in intensive care units,reduces the length of stay in intensive care units three times
